Assay results: US20090131470A1, “PYRAZOLE-SUBSTITUTED BENZIMIDAZOLE DERIVATIVES FOR USE IN THE TREATMENT OF CANCER AND AUTOIMMUNE DISORDERS” (priority 2005, published 2009)

Assays:
Format in all cases: biochemical
Akt1 = target: T1, Akt1 (Homo sapiens, UniProt P31749); assay: Akt1 kinase assay (Histone H1 substrate); details: 200 μM ATP, read-out: AKT-1 IC50
T1 construct: purchased Upstate

[1] = target: CDK-2 enzyme, complexed with cyclin A (Homo sapiens, UniProt P24941); assay: CDK2 kinase assay (33P peptide phosphorylation); details: 0.1 mM ATP, cyclin A complex
EGFR = EGFR (Homo sapiens, UniProt P00533); assay: Kinase selectivity screening (example 14)
FGFR1 = FGFR1 (Homo sapiens, UniProt P11362); assay: Kinase selectivity screening (example 14)
FGFR1, sequence (P11362 22-822, species assumed): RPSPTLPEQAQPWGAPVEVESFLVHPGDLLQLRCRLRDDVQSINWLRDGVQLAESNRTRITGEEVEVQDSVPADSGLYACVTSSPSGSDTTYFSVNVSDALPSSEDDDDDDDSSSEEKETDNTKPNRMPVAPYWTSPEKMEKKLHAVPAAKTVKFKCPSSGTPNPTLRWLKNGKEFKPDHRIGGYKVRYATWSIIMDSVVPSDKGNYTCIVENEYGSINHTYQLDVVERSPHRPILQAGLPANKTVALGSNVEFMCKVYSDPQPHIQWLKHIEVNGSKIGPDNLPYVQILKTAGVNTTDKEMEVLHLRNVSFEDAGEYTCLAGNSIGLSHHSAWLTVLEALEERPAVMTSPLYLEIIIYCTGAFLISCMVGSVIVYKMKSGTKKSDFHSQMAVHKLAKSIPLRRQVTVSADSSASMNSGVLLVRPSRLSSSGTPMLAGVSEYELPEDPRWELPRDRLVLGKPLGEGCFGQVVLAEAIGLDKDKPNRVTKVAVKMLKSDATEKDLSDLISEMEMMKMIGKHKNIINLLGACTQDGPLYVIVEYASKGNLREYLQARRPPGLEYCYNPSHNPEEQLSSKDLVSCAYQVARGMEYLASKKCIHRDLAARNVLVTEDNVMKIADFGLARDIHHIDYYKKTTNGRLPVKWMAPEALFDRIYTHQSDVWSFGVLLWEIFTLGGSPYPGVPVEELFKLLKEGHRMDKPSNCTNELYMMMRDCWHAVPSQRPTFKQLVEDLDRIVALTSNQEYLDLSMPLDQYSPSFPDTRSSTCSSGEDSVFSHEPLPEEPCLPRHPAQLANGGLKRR

FGFR2 = FGFR2 (Homo sapiens, UniProt P21802); assay: Kinase selectivity screening (example 14)
FGFR4 = FGFR4 (Homo sapiens, UniProt P22455); assay: Kinase selectivity screening (example 14)
FGFR4, sequence (P22455 22-802, species assumed): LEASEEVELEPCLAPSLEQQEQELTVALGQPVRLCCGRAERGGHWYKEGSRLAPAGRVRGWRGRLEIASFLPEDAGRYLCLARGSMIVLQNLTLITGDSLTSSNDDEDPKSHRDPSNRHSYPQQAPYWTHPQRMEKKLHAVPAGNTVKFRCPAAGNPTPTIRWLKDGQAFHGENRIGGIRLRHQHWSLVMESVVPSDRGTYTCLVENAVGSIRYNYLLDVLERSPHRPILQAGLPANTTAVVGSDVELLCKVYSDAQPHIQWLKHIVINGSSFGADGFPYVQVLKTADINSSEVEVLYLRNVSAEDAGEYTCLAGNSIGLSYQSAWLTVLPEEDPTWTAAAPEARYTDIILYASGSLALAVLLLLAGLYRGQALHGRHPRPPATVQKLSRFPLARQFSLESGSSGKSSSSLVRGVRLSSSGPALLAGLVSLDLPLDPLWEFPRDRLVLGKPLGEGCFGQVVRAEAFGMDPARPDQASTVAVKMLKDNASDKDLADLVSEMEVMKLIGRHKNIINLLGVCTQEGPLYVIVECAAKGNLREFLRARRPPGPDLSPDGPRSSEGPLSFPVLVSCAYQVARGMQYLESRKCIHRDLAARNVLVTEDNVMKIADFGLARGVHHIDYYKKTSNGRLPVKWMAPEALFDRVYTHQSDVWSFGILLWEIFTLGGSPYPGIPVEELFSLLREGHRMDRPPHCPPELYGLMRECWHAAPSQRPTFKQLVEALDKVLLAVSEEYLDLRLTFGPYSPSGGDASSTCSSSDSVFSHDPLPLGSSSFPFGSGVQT

IGF-IR = IGF-IR (Homo sapiens, UniProt P08069); assay: Kinase selectivity screening (example 14)
IGF-IR, sequence (P08069 31-1367): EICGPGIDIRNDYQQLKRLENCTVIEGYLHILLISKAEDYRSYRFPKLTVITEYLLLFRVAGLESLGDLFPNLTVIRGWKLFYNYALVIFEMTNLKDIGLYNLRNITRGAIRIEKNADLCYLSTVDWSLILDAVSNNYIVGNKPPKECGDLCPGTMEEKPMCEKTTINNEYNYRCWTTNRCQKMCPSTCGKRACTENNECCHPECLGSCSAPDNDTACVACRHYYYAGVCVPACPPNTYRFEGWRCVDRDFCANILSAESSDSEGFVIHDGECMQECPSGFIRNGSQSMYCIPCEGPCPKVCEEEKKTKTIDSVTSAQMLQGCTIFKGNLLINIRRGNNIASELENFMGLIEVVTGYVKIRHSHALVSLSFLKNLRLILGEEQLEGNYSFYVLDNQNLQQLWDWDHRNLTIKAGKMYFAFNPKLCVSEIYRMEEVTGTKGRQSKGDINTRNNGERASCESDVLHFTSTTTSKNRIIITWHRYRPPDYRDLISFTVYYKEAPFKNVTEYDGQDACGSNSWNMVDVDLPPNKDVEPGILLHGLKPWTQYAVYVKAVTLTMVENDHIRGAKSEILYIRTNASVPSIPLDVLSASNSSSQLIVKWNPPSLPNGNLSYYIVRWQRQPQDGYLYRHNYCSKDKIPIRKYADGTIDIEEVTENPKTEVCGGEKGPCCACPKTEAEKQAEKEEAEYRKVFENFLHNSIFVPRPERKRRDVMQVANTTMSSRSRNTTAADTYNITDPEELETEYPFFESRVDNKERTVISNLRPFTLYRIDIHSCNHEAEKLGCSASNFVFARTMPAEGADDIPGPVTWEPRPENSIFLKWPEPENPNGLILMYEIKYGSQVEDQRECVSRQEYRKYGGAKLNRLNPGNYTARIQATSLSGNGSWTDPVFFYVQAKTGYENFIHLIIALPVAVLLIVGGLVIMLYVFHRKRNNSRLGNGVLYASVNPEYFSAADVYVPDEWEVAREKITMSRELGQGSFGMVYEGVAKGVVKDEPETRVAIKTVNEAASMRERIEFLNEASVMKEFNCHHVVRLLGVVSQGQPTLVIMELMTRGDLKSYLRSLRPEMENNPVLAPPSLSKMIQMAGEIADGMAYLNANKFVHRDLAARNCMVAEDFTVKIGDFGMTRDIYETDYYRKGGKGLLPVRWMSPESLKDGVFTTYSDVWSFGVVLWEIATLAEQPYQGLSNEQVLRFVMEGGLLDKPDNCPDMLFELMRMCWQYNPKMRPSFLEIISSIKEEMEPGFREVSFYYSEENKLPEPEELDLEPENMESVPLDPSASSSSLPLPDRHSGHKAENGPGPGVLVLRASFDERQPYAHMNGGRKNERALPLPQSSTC

ITK = target: T2, ITK (Homo sapiens, UniProt Q08881); assay: Kinase selectivity screening (example 14)
T2 sequence (Q08881 1-620): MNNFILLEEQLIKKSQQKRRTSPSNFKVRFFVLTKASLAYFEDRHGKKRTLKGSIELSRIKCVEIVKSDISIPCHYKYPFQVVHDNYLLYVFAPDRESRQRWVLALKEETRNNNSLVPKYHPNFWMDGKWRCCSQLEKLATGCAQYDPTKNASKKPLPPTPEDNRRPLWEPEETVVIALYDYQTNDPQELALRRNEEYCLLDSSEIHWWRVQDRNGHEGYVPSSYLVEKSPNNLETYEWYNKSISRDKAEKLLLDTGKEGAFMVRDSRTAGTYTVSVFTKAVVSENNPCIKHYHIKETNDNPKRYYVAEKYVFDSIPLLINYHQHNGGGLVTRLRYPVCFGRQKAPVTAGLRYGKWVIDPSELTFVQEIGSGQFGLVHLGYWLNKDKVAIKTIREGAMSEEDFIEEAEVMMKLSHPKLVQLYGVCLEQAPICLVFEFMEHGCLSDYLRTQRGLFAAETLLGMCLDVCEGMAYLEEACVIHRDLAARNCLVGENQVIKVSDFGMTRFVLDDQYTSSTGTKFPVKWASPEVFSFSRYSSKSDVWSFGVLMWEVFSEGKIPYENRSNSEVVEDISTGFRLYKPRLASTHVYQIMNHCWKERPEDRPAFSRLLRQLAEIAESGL

PDGFRa = PDGFRa (Homo sapiens, UniProt P16234); assay: Kinase selectivity screening (example 14)
Syk = Syk (Homo sapiens, UniProt P43405); assay: Kinase selectivity screening (example 14)
Tie2 = Tie2 (Homo sapiens, UniProt Q02763); assay: Kinase selectivity screening (example 14)
Tie2, sequence (Q02763 23-1124, species assumed): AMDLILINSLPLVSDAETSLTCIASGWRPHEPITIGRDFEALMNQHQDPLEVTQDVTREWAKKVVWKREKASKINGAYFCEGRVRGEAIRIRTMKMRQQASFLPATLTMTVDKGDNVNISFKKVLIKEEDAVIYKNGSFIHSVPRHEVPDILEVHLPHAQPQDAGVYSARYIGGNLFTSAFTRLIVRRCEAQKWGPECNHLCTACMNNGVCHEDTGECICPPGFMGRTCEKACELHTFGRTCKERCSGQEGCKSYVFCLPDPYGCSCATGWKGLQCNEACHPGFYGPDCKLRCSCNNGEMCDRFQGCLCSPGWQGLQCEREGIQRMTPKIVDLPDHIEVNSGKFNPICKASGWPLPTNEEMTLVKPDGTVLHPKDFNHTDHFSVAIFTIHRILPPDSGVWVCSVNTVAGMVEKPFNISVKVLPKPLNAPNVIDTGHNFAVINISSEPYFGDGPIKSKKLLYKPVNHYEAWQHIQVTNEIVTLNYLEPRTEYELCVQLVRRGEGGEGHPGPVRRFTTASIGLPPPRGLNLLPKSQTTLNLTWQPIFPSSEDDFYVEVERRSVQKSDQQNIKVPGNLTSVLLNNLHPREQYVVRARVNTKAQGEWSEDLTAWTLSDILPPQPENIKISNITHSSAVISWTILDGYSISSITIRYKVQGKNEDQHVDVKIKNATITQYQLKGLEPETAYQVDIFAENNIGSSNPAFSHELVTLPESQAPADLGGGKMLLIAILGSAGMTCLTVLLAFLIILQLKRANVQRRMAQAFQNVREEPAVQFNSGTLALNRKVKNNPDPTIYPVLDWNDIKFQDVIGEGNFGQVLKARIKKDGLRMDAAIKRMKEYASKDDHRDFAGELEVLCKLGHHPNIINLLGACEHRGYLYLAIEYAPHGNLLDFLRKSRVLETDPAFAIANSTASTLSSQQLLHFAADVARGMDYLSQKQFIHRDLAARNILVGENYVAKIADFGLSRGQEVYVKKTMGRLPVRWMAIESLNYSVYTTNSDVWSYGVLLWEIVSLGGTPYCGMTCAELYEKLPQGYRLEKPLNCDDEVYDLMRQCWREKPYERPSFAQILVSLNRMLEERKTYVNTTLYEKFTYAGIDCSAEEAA

T1 sequence (P31749 whole entry, species assumed): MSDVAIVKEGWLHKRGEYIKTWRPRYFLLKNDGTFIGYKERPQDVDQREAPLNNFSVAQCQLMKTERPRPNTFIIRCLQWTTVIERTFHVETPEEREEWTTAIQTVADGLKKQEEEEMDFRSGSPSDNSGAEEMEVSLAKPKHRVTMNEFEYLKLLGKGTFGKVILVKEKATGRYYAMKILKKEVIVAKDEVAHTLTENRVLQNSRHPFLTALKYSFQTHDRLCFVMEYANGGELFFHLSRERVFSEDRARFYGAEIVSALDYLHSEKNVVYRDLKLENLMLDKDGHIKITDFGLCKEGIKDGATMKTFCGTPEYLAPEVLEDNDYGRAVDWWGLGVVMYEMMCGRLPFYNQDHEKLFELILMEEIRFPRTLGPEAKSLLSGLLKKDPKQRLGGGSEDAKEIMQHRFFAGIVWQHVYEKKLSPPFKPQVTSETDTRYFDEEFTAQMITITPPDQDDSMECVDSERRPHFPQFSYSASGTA

SMILES: Cc1[nH]nc(-c2nc3cc4cn[nH]c4cc3[nH]2)c1C(=O)NC1CCNCC1 [Example 14]
- IC50 (Akt1): 26.8 µM
- IC50 [1]: 5.11 µM
- selectivity versus EGFR (EGFR): > 20 fold
- selectivity versus FGFR1 (FGFR1): > 20 fold
- selectivity versus FGFR2 (FGFR2): > 20 fold
- selectivity versus FGFR4 (FGFR4): > 20 fold
- selectivity versus IGF-IR (IGF-IR): > 20 fold
- selectivity versus ITK (ITK): > 20 fold
- selectivity versus PDGFRa (PDGFRa): > 20 fold
- selectivity versus Syk (Syk): > 20 fold
- selectivity versus Tie2 (Tie2): > 20 fold
